Drawing on ChEMBL document CHEMBL1144125, “Excavatolides U-Z, new briarane diterpenes from the gorgonian briareum excavatum” (1999), this text covers EC50 for 5 compounds.

Holding throughout (format): functional
Conditions in all cases: read-out: ED50 (the source's name)

For one test, the system named is P388. Nature of the test: Cytotoxicity against mouse P388 cells.
The next test has as its system KB. Nature of the test: Cytotoxicity against human KB cells.
The test system of another test is A549. Nature of the test: Cytotoxicity against human A549 cells.
The test system of another test is HT-29. Nature of the test: Cytotoxicity against human HT-29 cells.

Converted amounts (≈) assume the structure as drawn.

For `CCC(=O)O[C@@H]1C[C@@H](OC(C)=O)[C@@]2(C)C=C[C@@H](OC(C)=O)[C@](C)(O)[C@@H]2[C@@H](OC(C)=O)[C@]23O[C@]2(C)C(=O)O[C@H]3/C=C\1C`, the EC50 is 9.5 µg/mL (≈ 16.4 µM) in the test with P388, more than 50 µg/mL with KB, more than 50 µg/mL in the test on A549 and 15.1 µg/mL (≈ 26.1 µM) in the test on HT-29.

`CCC(=O)O[C@H]1C[C@H](OC(C)=O)[C@@]2(C)[C@H]([C@H]1C)[C@@H](O)[C@]13O[C@]1(C)C(=O)O[C@H]3/C=C(/C)CC[C@H]2OC(C)=O` [EXCAVATOLIDE W]: the EC50 was 19.4 µg/mL (≈ 37.1 µM) with P388, more than 50 µg/mL in the test on KB, more than 50 µg/mL with A549 and more than 50 µg/mL in the test on HT-29.

On to `CCCC(=O)O[C@H]1C/C(C)=C\[C@@H]2OC(=O)[C@@]3(C)O[C@]23[C@H](OC(C)=O)[C@H]2[C@@H](C)[C@@H](OC(=O)CC)C[C@H](OC(C)=O)[C@]2(C)[C@@H]1OC(C)=O` [EXCAVATOLIDE U], for which the EC50 in the test with P388, in the test with KB, in the test on A549 and with HT-29 was more than 50 µg/mL in each case.

Regarding `CCCC(=O)O[C@@H]1C=C[C@]2(C)[C@H](OC(C)=O)C[C@@H](OC(C)=O)/C(C)=C\[C@@H]3OC(=O)[C@@]4(C)O[C@]34[C@H](OC(C)=O)[C@H]2[C@@]1(C)O`, the EC50 in the test on P388, in the test on KB, in the test on A549 and in the test on HT-29 was more than 50 µg/mL each time.

In the case of `CCC(=O)O[C@H]1C[C@H](OC(C)=O)[C@@]2(C)[C@H]([C@H]1C)[C@@H](OC(C)=O)[C@]13O[C@]1(C)C(=O)O[C@H]3/C=C(/C)C[C@H](OC(C)=O)[C@H]2OC(C)=O` [EXCAVATOLIDE V], the EC50 was 3.9 µg/mL (≈ 6.26 µM) in the test on P388, 7 µg/mL (≈ 11.2 µM) in the test on KB, 19.1 µg/mL (≈ 30.7 µM) in the test with A549 and 20.4 µg/mL (≈ 32.8 µM) with HT-29.
